In assay [1] the test system is anterior primitive streak (APS) cells. Description: Induction of anterior intermediate mesoderm cells from hiPSCs via anterior primitive streak (immunostaining, flow cytometry). In kind it is cell-based, human. Conditions: for effect on induction efficiency / differentiation of OSR1^+GATA3^+ cells: added to the anterior intermediate mesoderm induction stage, 10 ng/ml BMP4 or 0.1 μM LDN193189. The procedure: Undifferentiated hiPSCs/ESCs were plated at a density of 2.5×10^4 cells/cm^2 onto tissue culture plates in maintenance medium with 10 μM Y-27632 and iMatrix-511 silk. After 24 h, the cells were washed with PBS and treated with Essential 6 medium (Thermo Fisher Scientific) containing 100 ng/ml Activin A (R&D Systems) and 3 μM CHIR99021 (Stem RD) with or without 10 ng/ml bone morphogenetic protein (BMP)4 (PeproTech) for 24 h.
To induce anterior intermediate mesoderm, the anterior primitive streak cells were treated with 200 ng/ml fibroblast growth factor (FGF) 8 (Peprotech), 0.1 μM 4-[(E)-2-(5,6,7,8-Tetrahydro-5,5,8,8-tetramethyl-2-naphthalenyl)-1-propenyl]-benzoic acid (TTNPB; Santa Cruz Biotechnology), 1 μM A83-01 and 0.1 μM LDN193189 for 2 days. Then, the cells were replated onto Matrigel-coated plates at a density of 1×10^5 cells/cm^2 in the anterior intermediate mesoderm induction medium with 10 μM Y-27632 and incubated for an additional 24 h.
(§1) The cells were fixed with 4% PFA/PBS for 20 min at 4° C. After washing with PBS, the cells were blocked with 1% normal donkey serum (Millipore) and 3% bovine serum albumin (BSA; Nacalai Tesque)/PBST (PBS/0.25% Triton X-100) for 1 h at room temperature. Primary antibodies were diluted in blocking solution and incubated with samples overnight at 4° C. Secondary antibodies were incubated for 1 h at room temperature.
After dissociation with Accutase, the cells were fixed, permeabilized and blocked with a BD Cytofix/Cytoperm Kit (Becton Dickinson). Then the cells were incubated with primary antibodies diluted at 1:100 in blocking solution for 30 min at room temperature. After washing twice, the cells were incubated with secondary antibodies diluted at 1:500 in blocking solution for 30 min at room temperature. The cells were then analyzed using FACS AriaII cell sorter (Becton Dickinson).

The subject of assay [2] is anterior intermediate mesoderm cells. The experiment in a line: Induction of Wolffian duct cells from anterior intermediate mesoderm cells (immunostaining, cell counts). In kind it is cell-based, human. The settings on record: for differentiation of Wolffian duct cells (OSR1^−GATA3^+PAX2^+) from anterior intermediate mesoderm cells / Total cell numbers after treatment: 3D45 cells; for Total cell numbers after treatment: FIG. 2E, mean±s.d., n=3, before treatment 1.44±0.29; for number of GATA3^+ (Wolffian duct) cells: supplementation during Wolffian duct induction. The procedure:
Anterior intermediate mesoderm cells were treated with Essential 6 medium containing 1 μM CHIR99021, 0.1 μM LDN193189, 200 ng/ml FGF8 and 100 ng/ml glial cell line-derived neurotrophic factor (GDNF; R&D Systems) with or without 0.1 μM TTNPB for 2 days to enhance Wolffian duct leading edge cell induction. Then, the cells were dissociated into single cells by gentle pipetting after treatment with Accutase (Innovative Cell Technologies). The cells were seeded onto low-attachment 96-well plates (Sumitomo Bakelite) at a density of 1×10^4 cells/well in Essential 6 medium with 100 ng/ml GDNF, 200 ng/ml FGF1 (R&D Systems), 0.1 μM TTNPB, 3 μM CHIR99021 and 10 μM Thiazovivin (Santa Cruz Biotechnology) and incubated for 2 days to induce mature Wolffian duct aggregates.
as §1

The mark [3] stands for this setting: added to anterior intermediate mesoderm cells, immunostaining.

Entries after “also recorded” stand apart in the source; their conditions may differ.

For `Cc1cccc(-c2nn(C(=S)Nc3ccccc3)cc2-c2ccnc3ccccc23)n1` [A83-01, 3-(6-Methyl-2-pyridinyl)-N-phenyl-4-(4-quinolinyl)-1H-pyrazole-1-carbothioamide], the “differentiation of SOX17^+ definitive endoderm cells” value in assay [1] (1 μM A83-01 added to FGF8 and TTNPB, immunostaining) is recorded as “diminished; also recorded: decreases the differentiation into definitive endoderm cells”. For the same molecule, the “induction of anterior intermediate mesoderm-like cells (OSR1, GATA3 immunostaining)” value in assay [1] (treatment of APS cells) is reported as “without inhibiting the induction of anterior intermediate mesoderm-like cells”.

Consider `Cc1ccc(C2=CCC(C)(C)c3ccc(C#Cc4ccc(C(=O)O)cc4)cc32)cc1` [AGN193109], for which the “RET expression (Wolffian duct cell marker)” value in assay [2] (setting [3]) is listed as “diminished RET expression; also recorded: decreased the expression of RET”.

Consider `Cc1c[nH]c(-c2cnc(NCCNc3ccc(C#N)cn3)nc2-c2ccc(Cl)cc2Cl)n1` [CHIR99021, 6-[2-[4-(2,4-Dichlorophenyl)-5-(4-methyl-1H-imidazol-2-yl)pyrimidin-2-ylamino]ethylamino]pyridine-3-carbonitrile], for which, in assay [2] (immunostaining), the “differentiation of Wolffian duct cells (OSR1^−GATA3^+PAX2^+) from anterior intermediate mesoderm cells” value (“differentiation of Wolffian duct cells” below) is recorded as “enhanced OSR1^−GATA3^+PAX2^− cell differentiation; also recorded: enhanced the differentiation”.

Take `O=C(Nc1cccc2cccnc12)c1ccc(N2C(=O)[C@@H]3[C@H](C2=O)[C@@H]2C=C[C@H]3C2)cc1` [IWR-1]: in assay [2] (setting [3]), the “GATA3 and PAX2 expressions” value was “diminished GATA3 and PAX2 expressions”; the OSR1 expression entry is on record as “prolonged OSR1 expression”. In assay [2] (immunostaining), the “differentiation of Wolffian duct cells” value is on record as “inhibited the Wolffian duct induction”.

Turning to `c1ccc2c(-c3cnn4cc(-c5ccc(N6CCNCC6)cc5)cnc34)ccnc2c1` [LDN193189, 4-(6-(4-(piperazin-1-yl)phenyl)pyrazolo[1,5-a]pyrimidin-3-yl)quinoline], in assay [2] (immunostaining), the “differentiation of Wolffian duct cells” value is listed as “enhanced the Wolffian duct induction”. The “effect on induction efficiency / differentiation of OSR1^+GATA3^+ cells” value in assay [1] is given as “did not change the induction efficiency”.

`C/C(=C\c1ccc(C(=O)O)cc1)c1ccc2c(c1)C(C)(C)CCC2(C)C` [TTNPB, 4-[(E)-2-(5,6,7,8-Tetrahydro-5,5,8,8-tetramethyl-2-naphthalenyl)-1-propenyl]-benzoic acid]: the “differentiation of Wolffian duct cells” value in assay [2] (immunostaining) is given as “early Wolffian duct cells were stably generated”.

B1: FGF8: fibroblast growth factor (FGF) 8 (Peprotech) (protein, UniProt P55075 23-233, looked up)
Fibroblast growth factor 8: QEGPGRGPALGRELASLFRAGREPQGVSQQHVREQSLVTDQLSRRLIRTYQLYSRTSGKHVQVLANKRINAMAEDGDPFAKLIVETDTFGSRVRVRGAETGLYICMNKKGKLIAKSNGKGKDCVFTEIVLENNYTALQNAKYEGWYMAFTRKGRPRKGSKTRQHQREVHFMKRLPRGHHTTEQSLRFEFLNYPPFTRSLRGSQRTWAPEPR
On to B1, for which, in assay [2], the “Total cell numbers after treatment” value is listed as 4.69±0.65 ×10^5/cm^2 and the “number of GATA3^+ (Wolffian duct) cells” value is “increased the number of GATA3^+ cells”. In addition, the “differentiation of Wolffian duct cells” value in assay [2] (immunostaining) is given as “enhanced the Wolffian duct induction”.

B2: GDNF: glial cell line-derived neurotrophic factor (R&D Systems) (protein, UniProt P39905 78-211, looked up)
Glial cell line-derived …: SPDKQMAVLPRRERNRQAAAANPENSRGKGRRGQRGKNRGCVLTAIHLNVTDLGLGYETKEELIFRYCSGSCDAAETTYDKILKNLSRNRRLVSDKVGQACCRPIAFDDDLSFLDDNLVYHILRKHSAKRCGCI
B2: in assay [2], the “Total cell numbers after treatment” value was 2.37±0.56 ×10^5/cm^2 and the “number of GATA3^+ (Wolffian duct) cells” value is reported as “increased the number of GATA3^+ Wolffian duct cells”.

B3: BMP4: bone morphogenetic protein (BMP)4 (PeproTech) (protein, UniProt P12644 293-408, looked up)
Bone morphogenetic protein 4: SPKHHSQRARKKNKNCRRHSLYVDFSDVGWNDWIVAPPGYQAFYCHGDCPFPLADHLNSTNHAIVQTLVNSVNSSIPKACCVPTELSAISMLYLDEYDKVVLKNYQEMVVEGCGCR
Consider B3, for which the “differentiation of Wolffian duct cells” value in assay [2] (immunostaining) is given as “suppressed Wolffian duct differentiation; also recorded: inhibited the differentiation of Wolffian duct cells”. Also, in assay [1] (FIG. 1H, 10 ng/ml BMP4 at APS induction stage, 0.1 μM LDN193189 at anterior IM induction stage, mean±s.d., n=4), the “induction rates of GATA3^+ cells” value is on record as 69.1±13.9%. The “effect on induction efficiency / differentiation of OSR1^+GATA3^+ cells” value in assay [1] is on record as “inhibited the differentiation”. Also, the “OSR1^+GATA3^+ cell induction rate” value in assay [1] (added to the anterior primitive streak induction stage) was “around 70 % of the total cells obtained”. In addition, in assay [1] (added to the anterior primitive streak induction stage, 10 ng/ml BMP4, immunostaining), the “effect on OSR1^+GATA3^+ cell induction” value was “facilitated the OSR1^+GATA3^+ cell induction”.
